What was measured:
Hartley guinea pigs [1] = test: Skyscan Micro-CT of distal femurs of Hartley guinea pigs; assay type: in vivo
Description: The distal femurs of the Hartley guinea pigs were also analyzed with Skyscan Micro-CT. The femur of untreated Hartley guinea pigs had less bone volume and larger marrow space than the femur of CaPC-treated Hartley guinea pigs. Micro-CT scan of the femur of Hartley guinea pigs. […] The area showing less trabecular bone and larger marrow space is indicated by a red arrow. In the right image of FIG. 3, the femur of a CaPC-treated Hartley guinea pig is shown.
Femurs, previously stored in 70% ethanol, were cut close to the distal femur condyle. The specimens were left to dry 48-hr before being scanned using Skyscan Micro-CT. A 3-D model was built in the ANT model building program and bisected with a plane down the lateral/midline. Using the model building program, a separate dataset was built forming 30 cross sections on either side of the plane. With this dataset, measurements were taken with the 3D-Calc program. A rectangular region of interest was applied to all 60 sections. The region of interest was placed approximately 0.5 cm down from the growth plate in the central part of the trabeculae and extended downward.

[2] = system: meniscus derived from osteoarthritis patients; test: Microarray gene expression in cultured minced meniscus; assay type: cell-based, human; conditions: 7 day treatment, Skeletal Development gene
Excerpt: In this example, meniscus derived from osteoarthritis patients were minced into small pieces and cultured in the absence or presence of magnesium phosphcitrate (MgPC). After 7 day treatment, RNA was extracted and gene expression was investigated using microarray.

Hartley guinea pigs [3] = test: Subchondral bone mineral density by X-ray densitometry; assay type: in vivo
Description: The bone mineral density of subchondral bone of these same Hartley guinea pigs was evaluated using a X-ray densitometry.

Hartley guinea pigs [4] = test: High definition X-ray of front limbs of Hartley guinea pigs after eight months of CaPC; assay type: in vivo; conditions: 30 mg/kg intraperitoneal twice per week
Description: In this example, three month old Hartley guinea pigs were administered 30 mg/kg calcium phosphorcitrate (CaPC) or saline via intraperitoneal injection twice per week. Eight months later, the guinea pigs were sacrificed and examined with high definition X-ray. […] The bone mineral content of the front limb of a CaPC-treated Hartley guinea pig (left photo, the green arrow) was higher than the bone mineral content of a front limb of an untreated Hartley guinea pig (left photo, the green arrow). […] The diameter of the front limb was lager and the bone mineral content was higher in CaPC-treated Hartley guinea pigs that that in untreated Hartley guinea pigs.

| Substance | trabecular bone and marrow space of femur (Micro-CT image) (Hartley guinea pigs [1]; 30 mg/kg intraperitoneal twice per week, eight months, vs untreated) | Bone Volume (Hartley guinea pigs [1]; distal femur, region of interest over 60 sections, untreated 0.19 + 0.04) | Trabecular Number (Hartley guinea pigs [1]; distal femur, region of interest over 60 sections, untreated 0.43 + 0.08) | Tissue Volume (Hartley guinea pigs [1]; distal femur, region of interest over 60 sections, untreated 10.76 + 1.9) | Trabecular Thickness (Hartley guinea pigs [1]; distal femur, region of interest over 60 sections, untreated 32.90 + 3.6) | Differential Expression ACAN [2] | Differential Expression COL2A1 [2] | Differential Expression COL11A1 [2] | Subchondral bone mineral density (Hartley guinea pigs [3]; Pair one, untreated 0.143) [g/cm^2] | Subchondral bone mineral density (Hartley guinea pigs [3]; Pair three, untreated 0.150) [g/cm^2] | Subchondral bone mineral density (Hartley guinea pigs [3]; Pair two, untreated 0.146) [g/cm^2] | formation of bone (Hartley guinea pigs [4]; vs saline) | bone mineral content of the front limb (Hartley guinea pigs [4]; vs untreated) | diameter of the front limb (Hartley guinea pigs [4]; vs untreated) |
| --- | --- | --- | --- | --- | --- | --- | --- | --- | --- | --- | --- | --- | --- | --- |
| calcium phosphorcitrate [CaPC] | more trabecular bone and less marrow space | 0.49 + 0.09 | 1.07 + 0.15 | 10.76 + 1.9 | 42.00 + 4.9 | significantly induced | significantly induced | significantly induced | 0.157 | 0.181 | 0.161 | promoted the formation of bone | higher | larger |
| magnesium phosphcitrate [MgPC] | – | – | – | – | – | 2.0 | 2.0 | 2.7 | – | – | – | – | – | – |
